In US8877733B2, “1′-substituted pyrimidine N-nucleoside analogs for antiviral treatment” (Gilead Sciences, Inc., priority 2011, dated 2014):
Read-outs that look alike come from different tables or passages of the source. Each block holds one compound with its values, some of them ahead of it.

Experiments:
[1] = tested on: mitochondrial protein levels of Complexes II and IV; experiment: Mitochondrial Biogenesis Assay after 5-day treatment in PC-3 cells; type: cell-based; conditions: human
Experimental: (§1) Three-fold serial dilutions of compounds were prepared in duplicate in 96-well plates starting at a concentration close to the CC50 value of the compound after 5-day treatment. For compounds with CC50≧100 μM, the starting concentration was 100 μM. PC-3 cells were plated at a density of 2.5×10^3 cells per well in a final assay volume of 100 μL per well with a constant amount of DMSO equal to 0.5%. After 5-day incubation, the cells were analyzed with the MitoSciences MitoBiogenesis™ In-Cell ELISA Kit (catalog #MS642), which uses quantitative immunocytochemistry to measure protein levels of Complexes II and IV in cultured cells. Cells were fixed in a 96-well plate and target proteins were detected with highly-specific, well-characterized monoclonal antibodies. The protein levels were quantified with IRDyee-labeled Secondary Antibodies. IR imaging and quantitation was performed using a LI-COR® Odyssey instrument. All ratios were expressed as a percentage of the 0.5% DMSO control. In cases where cell viability was severely affected, the data for mitochondrial biogenesis was not included for analysis due to significant errors associated with low signals. Chloramphenicol was used as the positive control for the assay.

[2] = tested on: RSV strain A2; experiment: RSV-induced cytopathic effect in Hep2 cells, 384 well method; type: cell-based; conditions: human respiratory syncytial virus, HEp-2, 120 h
Experimental: Antiviral activity against RSV is determined using an in vitro cytoprotection assay in Hep2 cells. […] The method used is similar to methods previously described in published literature (Chapman et al., Antimicrob Agents Chemother. 2007, 51(9):3346-53.)
Compounds were also tested for antiviral activity against RSV in Hep2 cells using a 384 well format. Compounds were diluted in DMSO using a 10-step serial dilution in 3-fold increments via automation in 4 adjacent replicates each. Eight compounds were tested per dilution plate. 0.4 uL of diluted compounds were then stamped via Biomek into 384-well plates (Nunc 142761 or 164730 w/lid 264616) containing 20 μL of media (Mediatech Inc. MEM supplemented with Glutamine, 10% FBS and Pen/Strep). DMSO and a suitable positive control compound, such as 80 μM GS-329467 or 10 μM 427346 was used for the 100% and 0% cell killing controls, respectively.
Hep2 cells (1.0×10^5 cells/mil) were prepared as above in batch to at least 40 mls excess of the number of sample plates (8 mls cell mix per plate) and infected with vendor supplied (ABI) RSV strain A2 to arrive at an MOI of 1:1000 (virus:cell #) or 1:3000 (vol virus: cell vol). Immediately after addition of virus, the RSV infected Hep2 cell suspension was added to each stamped 384-well plate at 20 μl per well using a uFlow dispenser, giving a final volume of 40 μL/well, each with 2000 infected cells. The plates were then incubated for 5 days at 37° C. and 5% CO2. Following incubation, the plates were equilibrated to room temperature in a biosafety cabinet hood for 1.5 hrs and 40 μL of Cell-Titer Glo viability reagent (Promega) was added to each well via uFlow. Following a10-20 minute incubation, the plates were read using an EnVision or Victor Luminescence plate reader (Perkin-Elmer). The data was then uploaded and analyzed on the Bioinformatics portal under the RSV Cell Infectivity and 8-plate EC50-Hep2-384 or 8-plate EC50-Hep2-Envision protocols.

[3] = biological target: HCV Δ21 NS5b polymerase (Hepatitis C virus genotype 1b (isolate Con1) (HCV), UniProt Q9WMX2); experiment: HCV IC50 determination, NS5b polymerase assay; type: biochemical; conditions: wild type or S282T mutant enzyme not specified, nucleoside triphosphates
Experimental: Assay Protocol: Either wild type or S282T (Migliaccio, et al., J. Biol. Chem. 2003, 49164-49170; Klumpp, et al., J. Biol. Chem. 2006, 3793-3799) mutant polymerase enzyme was used in this assay. NS5b polymerase assay (40 μL) was assembled by adding 28 μL polymerase mixture (final concentration: 50 mM Tris-HCl at pH 7.5, 10 mM KCl, 5 mM MgCl2, 1 mM DTT, 10 mM EDTA, 4 ng/μL of RNA template, and 75 nM HCV Δ21 NS5b polymerase) to assay plates followed by 4 μL of compound dilution. The polymerase and compound were pre-incubated at 35° C. for 10 minute before the addition of 8 μL of nucleotide substrate mixture (33P-[…] competing nucleotide at KM and 0.5 mM of the remaining three nucleotides). The assay plates were covered and incubated at 35° C. for 90 min. Reactions were then filtered through 96-well DEAE-81 filter plates via vacuum. The filter plates were then washed under vacuum with multiple volumes of 0.125 M NaHPO4, water, and ethanol to remove unincorporated label. Plates were then counted on TopCount to assess the level of product synthesis over background controls. The IC50 value is determined using Prism fitting program.

[4] = tested on: HCV replicon cells; experiment: HCV EC50 determination, replicon cells luciferase assay; type: cell-based; conditions: Hepatitis C virus
Experimental: Replicon cells were seeded in 96-well plates at a density of 8×10^3 cells per well in 100 μL of culture medium, excluding Geneticin. Compound was serially diluted in 100% DMSO and then added to the cells at a 1:200 dilution, achieving a final concentration of 0.5% DMSO and a total volume of 200 μL. Plates were incubated at 37° C. for 3 days, after which culture medium was removed and cells were lysed in lysis buffer provided by Promega's luciferase assay system. Following the manufacturer's instruction, 100 μL of luciferase substrate was added to the lysed cells and luciferase activity was measured in a TopCount luminometer.

[5] = tested on: protein levels of Complexes II and IV in PC-3 cells; experiment: Mitochondrial Biogenesis Assay after 5-day treatment in PC-3 cells; type: cell-based; conditions: PC-3 cells, 5-day treatment; maximum concentration tested 100 μM
Experimental: as §1

[6] = Hep2 cells, RSV A2, 5 days, Cell-Titer Glo, 384 well format, read-out: EC50

SMILES: O=C(N[C@H](CO)[C@H](O)c1ccc([N+](=O)[O-])cc1)C(Cl)Cl [Chloramphenicol, reference compound]
CC50 at 5 days [1]: 2.5 µM

EC50 [2, 6]: 10.9 µM
SMILES: N#C[C@@]1(n2ccc(=O)[nH]c2=O)O[C@H](CO)[C@@H](O)[C@H]1O [Compound 3]

EC50 [2, 6]: 11.3 µM
SMILES: N#C[C@@]1(n2ccc(N)nc2=O)O[C@H](CO)[C@@H](O)[C@H]1O [Compound 4]

EC50 [2, 6]: 200 µM
SMILES: C[C@@H](O)[C@H]1O[C@@](C#N)(n2ccc(=O)[nH]c2=O)[C@@H](O)[C@@H]1O [Compound 10]

EC50 [2, 6]: 200 µM
SMILES: C[C@@H](O)[C@H]1O[C@@](C#N)(n2ccc(N)nc2=O)[C@@H](O)[C@@H]1O [Compound 11]

EC50 [2, 6]: 200 µM
SMILES: CO[C@@H]1[C@H](O)[C@@H](CO)O[C@@]1(C#N)n1ccc(=O)[nH]c1=O [Compound 12]

EC50 [2, 6]: 200 µM
SMILES: CO[C@@H]1[C@H](O)[C@@H](CO)O[C@@]1(C#N)n1ccc(N)nc1=O [Compound 13]

EC50 [2, 6]: 200 µM
SMILES: C[C@H]1[C@H](O)[C@@H](CO)O[C@@]1(C#N)n1ccc(=O)[nH]c1=O [Compound 15]

SMILES: C[C@@]1(O)[C@H](O)[C@@H](COP(=O)(O)OP(=O)(O)OP(=O)(O)O)O[C@@]1(C#N)n1ccc(=O)[nH]c1=O [Compound 27]
IC50 [3]: 27 µM

SMILES: C[C@@]1(O)[C@H](O)[C@@H](COP(=O)(O)OP(=O)(O)OP(=O)(O)O)O[C@@]1(C#N)n1ccc(N)nc1=O [Compound 28]
IC50 [3]: 18 µM

SMILES: CC(C)OC(=O)[C@H](C)NP(=O)(OC[C@H]1O[C@@](C#N)(n2ccc(=O)[nH]c2=O)[C@](C)(O)[C@@H]1O)Oc1ccccc1 (stereo partly drawn) [Compound 29]
EC50 ([4]; 72 h): 8.2 µM

SMILES: CC(C)OC(=O)[C@H](C)N[P@](=O)(OC[C@H]1O[C@@](C#N)(n2ccc(N)nc2=O)[C@](C)(O)[C@@H]1O)Oc1ccccc1 [Compound 30]
EC50 ([4]; 72 h): 2.6 µM
EC50 ([4]; read-out: EC50 (antiviral activity)): 2.6 µM
EC50 ([4]; read-out: HCV EC50): 2.6 µM
CC50 at 5 days ([1]; mitochondrial toxicity, PC-3 cells, 5-day treatment, maximum concentration tested 100 μM, read-out: CC50): > 100 µM
50% inhibition of mitochondrial protein levels [5]: > 100 µM
EC50 [2]: 200 µM

SMILES: CC(C)OC(=O)[C@H](C)N[P@](=O)(OC[C@H]1O[C@@](C#N)(n2ccc(N)nc2=O)[C@](C)(O)[C@@H]1OC(=O)C(C)C)Oc1ccccc1 [Compound 35]
EC50 [2]: 200 µM

SMILES: C[C@@]1(O)[C@H](O)[C@@H](CO)O[C@H]1n1ccc(N)nc1=O [Compound A, reference compound]
EC50 ([4]; HCV replicon, read-out: EC50 (antiviral activity)): 2.5 µM
EC50 ([4]; replicon, comparison table R6=H vs R6=CN, read-out: HCV EC50): 2.5 µM
CC50 at 5 days [1]: 43 µM
